In ChEMBL document CHEMBL6074686 (Eur J Med Chem, 2025):
Active and inactive are the calls of the source. The rule behind the calls is not given here.

Assays:
SK-OV-3 [1] = assay: Induction of cell cycle arrest in human SK-OV-3 cells assessed as upregulation of Cyclin-B1 expression at 25 to 50 nM incubated for 24 hrs by Western blotting analysis; assay type: functional, cell-based; settings: dose 25-50 nM
MCF7 [2] = assay: Inhibition of cell migration in human MCF7 cells assessed as area of migrated cells at 12.5 nM incubated for 24 hrs by crystal violet staining based inverted microscopic analysis (reference value: 18.5 +/- 0.3 mm^3); assay type: functional
SK-OV-3 [3] = assay: Inhibition of cell migration in human SK-OV-3 cells assessed as reduction in wound closure at 3.125 nM incubated for 24 hrs by wound healing assay (reference value: 21.8 +/- 7.6%); assay type: functional; settings: SK-OV-3, 24 h, values are per cent of control
MCF7 [4] = assay: Inhibition of colony formation in human MCF7 cells at 50 nM incubated for 72 hrs by crystal violet staining based assay relative to control; assay type: functional
MCF7 [5] = assay: Inhibition of cell migration in human MCF7 cells assessed as ratio of migrated cells at 12.5 nM incubated for 24 hrs by crystal violet staining based inverted microscopic analysis (reference value: 100%); assay type: functional; design: scale not given: the % may be the effect or the level left
A549 = assay: Induction of cell cycle arrest in human A549 cells assessed as downregulation of Cdc-25c expression incubated for 24 hrs by Western blotting analysis; assay type: functional, cell-based; settings: dose 25-100 nM
MCF7 [6] = assay: Induction of apoptosis in human MCF7 cells assessed as upregulation of Bax expression at 100 nM incubated for 24 hrs by Western blotting analysis; assay type: functional, cell-based
SK-OV-3 [7] = assay: Induction of cell cycle arrest in human SK-OV-3 cells assessed as increase in G2/M phase cells at 2.5 nM incubated for 24 hrs PI staining based flow cytometric analysis (reference value: 24.6 +/- 2.0%); assay type: functional
MCF7 [8] = assay: Inhibition of cell migration in human MCF7 cells assessed as ratio of migrated cells at 50 nM incubated for 24 hrs by crystal violet staining based inverted microscopic analysis (reference value: 100%); assay type: functional; design: scale not given: the % may be the effect or the level left
SK-OV-3 [9] = assay: Induction of cell cycle arrest in human SK-OV-3 cells assessed as increase in G2/M phase cells at 10 nM incubated for 24 hrs PI staining based flow cytometric analysis (reference value: 24.6 +/- 2.0%); assay type: functional
[10] = Toxicity in female BALB/c nude mouse xenografted with human SK-OV-3 cells assessed as effect on body weight at 5 to 10 mg/kg, […] via tail vein once every 2 to 3 days; assay type: organism-based; settings: in vivo, dose lower 5 mg/kg, time lower 2 day, dose upper 10 mg/kg, time upper 3 day
MCF7 [11] = assay: Inhibition of cell migration in human MCF7 cells assessed as ratio of migrated cells at 3.125 nM incubated for 24 hrs by crystal violet staining based inverted microscopic analysis (reference value: 100%); assay type: functional; design: scale not given: the % may be the effect or the level left
MCF7 [12] = assay: Inhibition of cell migration in human MCF7 cells assessed as wound closure ratio at 20 nM incubated for 24 hrs by wound healing assay (reference value: 100%); assay type: functional; design: scale not given: the % may be the effect or the level left
SK-OV-3 [13] = assay: Induction of apoptosis in human SK-OV-3 cells assessed as upregulation of Bax expression at 100 nM incubated for 24 hrs by Western blotting analysis; assay type: functional, cell-based
SK-OV-3 [14] = assay: Inhibition of cell migration in human SK-OV-3 cells assessed as ratio of migrated cells at 1.25 nM incubated for 24 hrs by Transwell assay (reference value: 100 %); assay type: functional; design: scale not given: the % may be the effect or the level left
SK-OV-3 [15] = assay: Inhibition of cell migration in human SK-OV-3 cells assessed as ratio of migrated cells at 10 nM incubated for 24 hrs by Transwell assay (reference value: 100 %); assay type: functional; design: scale not given: the % may be the effect or the level left
SK-OV-3 [16] = assay: Inhibition of colony formation in human SK-OV-3 cells at 2.5 nM incubated for 12 days by crystal violet staining based assay relative to control; assay type: functional; settings: SK-OV-3, 288 h, time 12 day
SK-OV-3 [17] = assay: Antitumor activity against human SK-OV-3 cells xenografted xenografted in female BALB/c nude mouse assessed as downregulation of Bcl-2 expression level in tumor at 5 to 10 mg/kg, […] via tail vein once every 2 to 3 days by immunohistochemistry analysis; assay type: functional, organism-based; settings: dose 5-10 mg/kg, time 2-3 day
[18] = Toxicity in female BALB/c nude mouse xenografted with human SK-OV-3 cells assessed as drug tolerance by measuring body weight loss at 30 mg/kg, administered via tail vein for 5 days and measured daily; assay type: organism-based; settings: in vivo, iv, 120 h, time 5 day
MCF7 [19] = assay: Inhibition of cell migration in human MCF7 cells assessed as wound closure at 1.25 nM incubated for 24 hrs by wound healing assay (reference value: 44.5 +/- 8.8%); assay type: functional; design: scale not given: the % may be the effect or the level left
MCF7 [20] = assay: Inhibition of cell migration in human MCF7 cells assessed as wound closure ratio at 1.25 nM incubated for 24 hrs by wound healing assay (reference value: 100%); assay type: functional; design: scale not given: the % may be the effect or the level left
SK-OV-3 [21] = assay: Inhibition of cell migration in human SK-OV-3 cells assessed as reduction in wound closure at 12.5 nM incubated for 24 hrs by wound healing assay (reference value: 21.8 +/- 7.6%); assay type: functional; settings: SK-OV-3, 24 h, values are per cent of control
[22] = Toxicity in female BALB/c nude mouse xenografted with human SK-OV-3 cells assessed as drug tolerance by measuring loose stools at 30 mg/kg, administered via tail vein for 5 days and measured daily; assay type: organism-based, Feces; settings: in vivo, iv, 120 h, time 5 day
MCF7 [23] = assay: Induction of apoptosis in human MCF7 cells assessed as downregulation of Bcl-2 expression incubated for 24 hrs by Western blotting analysis; assay type: functional, cell-based
SK-OV-3 [24] = assay: Induction of apoptosis in human SK-OV-3 cells assessed as upregulation of Bcl-2 expression at 100 nM incubated for 24 hrs by Western blotting analysis; assay type: functional, cell-based
Tubulin (Homo sapiens) = Tubulin (Homo sapiens) (UniProt P68371+Q9H4B7+P0DPH7+P68366+Q13509+Q71U36+P04350+Q3ZCM7+P07437+P68363+Q9BQE3+Q6PEY2+Q13885+Q9BVA1+Q9BUF5); assay: Inhibition of tubulin polymerization (unknown origin) assessed as reduction in optical density at 340 nm; assay type: protein-complex assay; settings: dose 5-20 µM
SK-OV-3 [25] = assay: Induction of apoptosis in human SK-OV-3 cells assessed as upregulation of cleaved-caspase-3 expression incubated for 24 hrs by Western blotting analysis; assay type: functional, cell-based; settings: dose 25-100 nM
SK-OV-3 [26] = assay: Antitumor activity against human SK-OV-3 cells assessed as reduction in cell viability incubated for 72 hrs by CCK8 assay; assay type: functional, cell-based; settings: SK-OV-3, 72 h
[27] = Toxicity in female BALB/c nude mouse xenografted with human SK-OV-3 cells assessed as pathological changes in spleen at 5 to 10 mg/kg, […] via tail vein once every 2 to 3 days by H and E staining based analysis; assay type: organism-based; settings: in vivo, dose lower 5 mg/kg, time lower 2 day, dose upper 10 mg/kg, time upper 3 day
SK-OV-3 [28] = assay: Induction of cell cycle arrest in human SK-OV-3 cells assessed as increase in G2/M phase cells at 40 nM incubated for 24 hrs by PI staining based flow cytometric analysis (reference value: 24.6 +/- 2.0%); assay type: functional
SK-OV-3 [29] = assay: Induction of cell cycle arrest in human SK-OV-3 cells assessed as upregulation of Cdc-2 expression at 25 to 50 nM incubated for 24 hrs by Western blotting analysis; assay type: functional, cell-based; settings: dose 25-50 nM
MCF7 [30] = assay: Inhibition of cell migration in human MCF7 cells assessed as area of migrated cells at 50 nM incubated for 24 hrs by crystal violet staining based inverted microscopic analysis (reference value: 18.5 +/- 0.3 mm^3); assay type: functional

CNc1nc(N2CCCc3cc(OC)ccc32)c2cc(F)ccc2n1
Activity (SK-OV-3 [1]): inactive
Activity (MCF7 [2]): 11.2 mm3
response, % of control at 0.003125 µM (SK-OV-3 [3]): 22.8%
inhibition at 0.05 µM (MCF7 [4]): 42.2%
Activity (MCF7 [5]): 60.4%
Activity (A549): Dose-dependent-effect
Activity (MCF7 [6]): Active
Activity (SK-OV-3 [7]): 25.3%
Activity (MCF7 [8]): 11.7%
Activity (SK-OV-3 [9]): 64.5%
Activity [10]: Non-toxic
Activity (MCF7 [11]): 94.5%
Activity (MCF7 [12]): 72.4%
Activity (SK-OV-3 [13]): Active
Activity (SK-OV-3 [14]): 72.3%
Activity (SK-OV-3 [15]): 22.7%
inhibition at 0.0025 µM (SK-OV-3 [16]): 56.2%
Activity (SK-OV-3 [17]): Active
Activity [18]: Toxic
Activity (MCF7 [19]): 47%
Activity (MCF7 [20]): 105.5%
response, % of control at 0.0125 µM (SK-OV-3 [21]): 14.3%
Activity [22]: Toxic
Activity (MCF7 [23]): Active
Activity (SK-OV-3 [24]): inactive
inhibition (Tubulin (Homo sapiens)): Dose-dependent-effect
Activity (SK-OV-3 [25]): Dose-dependent-effect
IC50 (SK-OV-3 [26]): 0.8 nM
Activity [27]: Non-toxic
Activity (SK-OV-3 [28]): 94.5%
Activity (SK-OV-3 [29]): Active
Activity (MCF7 [30]): 2.2 mm3
